The values below come from ChEMBL document CHEMBL1158471, “Flaviviral protease inhibitors identified by fragment-based library docking into a structure generated by molecular dynamics” (J Med Chem, 2009).

Where a SMILES comes first, the peptide text is derived from it. [ ]: non-standard residue; d: D form. The star is where a group is joined. Nle = CCCC[C@H](N)C(=O)O; Bz = O=C(c1ccccc1)*

Experiment [1] has as its target T1, Genome polyprotein (West Nile virus, UniProt P06935). Put plainly: Inhibition of WNV NS2B-NS3 protease.
The target in experiment [2] is T1, Genome polyprotein. Put plainly: Binding affinity to WNV NS2B-NS3 protease measured as change of 1H chemical shift of Thr52 and Glu101 by NMR spectroscopy.
Experiment [3] concerns the target T1, Genome polyprotein. Description: Inhibition of WNV NS2B-NS3 protease by enzymatic assay.
The target in experiment [4] is T1, Genome polyprotein. Put plainly: Inhibition of WNV NS2B-NS3 protease by tryptophan fluorescence assay.
For experiment [5], the target named is T1, Genome polyprotein. Description: Binding affinity to WNV NS2B(K96A)-NS3 protease measured as change of 15N chemical shift of Ala36 by NMR spectroscopy.
Experiment [6] has as its target T1, Genome polyprotein. Put plainly: Binding affinity to WNV NS2B(K96A)-NS3 protease measured as change of 15N chemical shift of Val100 by NMR spectroscopy.
For experiment [7], the target named is T1, Genome polyprotein. Description: Binding affinity to WNV NS2B(K96A)-NS3 protease measured as change of 15N chemical shift of Ser137 by NMR spectroscopy.
The target of experiment [8] is T1, Genome polyprotein. Description: Binding affinity to WNV NS2B(K96A)-NS3 protease measured as change of 1H chemical shift of Glu101 by NMR spectroscopy.

As to `Cc1ccc(C(NN=C(N)N)[PH](=O)O)cc1` (stereo not given), the Ki on Genome polyprotein [1] was 13 µM. `NC(N)=N/N=C\c1ccc(/C=N\N=C(N)N)cc1` gave a Ki at Genome polyprotein [1] of 35 µM.

Regarding `Cc1cc(CSC(=N)N)c(C)cc1CSC(=N)N`, the dissociation constant Kd at Genome polyprotein [2] was 40 µM. As for `CC1CNC(c2ccc(Nc3nnc(Nc4ccc(C5=NC(C)CN5)cc4)c4ccccc34)cc2)=N1` (stereo not given), on Genome polyprotein [1], inhibition was half-maximal at 24.5 µM (IC50). Consider `N=C(N)Nc1ccc(C(=O)Oc2ccc([N+](=O)[O-])cc2)cc1`, for which the IC50 against Genome polyprotein [3] was 34.2 µM. Further, binding on Genome polyprotein [4] was characterised by a dissociation constant (Kd) of 16 µM. `c1ccc2c(Nc3ccc4c(c3)CNCC4)nnc(Nc3ccc(C4=NCCN4)cc3)c2c1` gave an IC50 against Genome polyprotein [1] of 5.2 µM. In turn, `NCc1ccc(Nc2nnc(Nc3ccc(C4=NCCN4)cc3)c3ccccc23)cc1` returned an IC50 against Genome polyprotein [1] of 10.6 µM. For `CCCC[C@H](NC(=O)c1ccccc1)C(=O)N[C@@H](CCCCN)C(=O)N[C@@H](CCCNC(=N)N)C(=O)N[C@H](C=O)CCCNC(=N)N` (Bz-[Nle]KRR-aldehyde), the IC50 on Genome polyprotein [1] worked out at 4.1 µM. This IC50 lies about 2.6-fold lower than the previous one. The compound `N=C(N)c1cccc(NC(=O)Nc2cccc(C(=N)N)c2)c1` [AMICARBALIDE] returned an IC50 against Genome polyprotein [3] of 2.8 µM. Moreover, the dissociation constant Kd at Genome polyprotein [4] was 15 µM; on Genome polyprotein [5] it was 90 µM; on Genome polyprotein [6], 90 µM; on Genome polyprotein [7], 90 µM; at Genome polyprotein [8], 70 µM.
